According to patent US20250195498A1, “INHIBITOR OF CELLULAR PURINE NUCLEOTIDE SALVAGE PATHWAY ENZYME FOR USE IN THE TREATMENT AND/OR PREVENTION OF HELICOBACTER PYLORI INFECTION AND/OR DISEASE ASSOCIATED WITH SUCH INFECTION AND PHARMACEUTICAL COMPOSITION COMPRISING THE SAME” (UNIWERSYTET WARSZAWSKI, priority 2022, published 2025):
≈ marks a conversion by molar mass, not a printed value. Where “and” joins values, the source holds several entries; their conditions need not be identical. Equal values may be shown once. Read-outs that look alike come from different tables or passages of the source.

What was measured:
[1] = test system: H. pylori strain 26695; assay: Growth curve method / MIC in liquid culture, strain 26695; format: cell-based, Helicobacter pylori; conditions: strain 26695; for MIC: read-out: MIC; for % inhibition of H. pylori cell cultures at maximum inhibitor solubility: at maximum solubility in 3.5% DMSO; for growth inhibition: 200 μM, partially precipitated
Protocol: The representative PNP inhibitor from H. pylori included in this study was immucillin A. The experiment was conducted using the growth curve method (two-fold serial dilutions in liquid medium). The tested H. pylori strains were cultured in Petri dishes with BHI solid medium supplemented with 10% FBS and 1% H. pylori Selective Supplement antibiotic kit, in anaerostats under microaerophilic conditions (5% 02, 10% CO2, 85% N2) at 37° C. for 3 days. Liquid culture of H. pylori was conducted overnight with shaking at 37° C. under microaerophilic conditions in BHI medium supplemented with 10% FBS and 1% H. pylori Selective Supplement antibiotic kit. Subsequently, for the essential experiment of determining the minimum inhibitory concentration (MIC), double strengthened liquid BHI medium was prepared, that is, supplemented with 20% FBS and a 2% set of H. pylori Selective Supplement antibiotics.
Bacterial proliferation inhibition experiments were carried out in 24-deep-well 2 ml flat-bottomed plates at a solution volume per well of 0.5 ml. In a single well, double strengthened (relative to the concentration planned for testing) solutions of the test inhibitor and double strengthened liquid BHI medium inoculated with H. pylori (10^4-10^5 CFU/ml in the final volume in the well, corresponding to the optical density of the culture OD600=0.05) were mixed together in a 1:1 ratio.
Kanamycin at a concentration of 25 μg/ml (Irie et al., 1997) was used as a positive control, while Mili-Q deionized water and BHI medium not inoculated with bacteria were used as negative controls. Plates were shaken at 37° C., under microaerophilic conditions. […] After 24 hours, the OD600 of samples containing the negative control, i.e. with Mili-Q deionized water, was about 1.2-1.4, corresponding to a bacterial concentration of about […].
In addition, the method proposed by Knezevic et al. (2018) was used to check whether the observed OD600 was from live bacterial cells. For this purpose, an equal volume of Christensen's double strength urea broth (that is, containing twice the concentration of all components) was added to the wells after incubation, and the plates were additionally incubated for 4 hours in an oxygen atmosphere at 37° C. During incubation, in wells with urease produced by live bacteria, urea is converted to ammonia and carbon dioxide, changing the pH of the solution and thus the colour of the phenol red indicator contained in the medium (from orange to purple).
All experiments were performed in triplicate.
The experiments were carried out using the growth curve method as described in Example 3, and the results obtained for two of the compounds tested are shown in FIG. 5. As the water solubility of the compounds tested, with the exception of 2,6-diCl-Pu, is relatively poor, two experiments were carried out: the first with the maximum concentration possible under the experimental conditions in aqueous solution with a small admixture of DMSO, and the second with higher concentrations that led to partial precipitation of the compound.
The antibacterial activity of two compounds, mefloquine (in the form of hydrochloride) and quinine, described in the literature as potent in vitro inhibitors of the PNP enzyme from Plasmodium falciparum (Dziekan et al., 2019), was tested. Using a two-fold serial dilution method in liquid medium (as described in Example 3), the MIC values for mefloquine and quinine were determined against clinical H. pylori strains resistant to MTZ, CLR and MTZ+CLR (M26, M91, M92 and M93), as well as the reference H. pylori strain 26695. Four clinical H. pylori strains isolated from adults, from primary infections (the subjects had never previously been treated against H. pylori infection) were tested. These strains come from the collection of the Department of Microbiology of the Medical University of Wroclaw and were obtained due to collaboration with Prof. Grażyna Gościniak, MD, PhD. […]

[2] = molecular target: T1, PNP from H. pylori strain 26695 (Helicobacter pylori, UniProt P56463); assay: Inhibition of PNP from H. pylori, spectrophotometric phosphorolysis assay; format: biochemical
T1 construct: made in house; host or cells: E. coli
T1 sequence (P56463 whole entry): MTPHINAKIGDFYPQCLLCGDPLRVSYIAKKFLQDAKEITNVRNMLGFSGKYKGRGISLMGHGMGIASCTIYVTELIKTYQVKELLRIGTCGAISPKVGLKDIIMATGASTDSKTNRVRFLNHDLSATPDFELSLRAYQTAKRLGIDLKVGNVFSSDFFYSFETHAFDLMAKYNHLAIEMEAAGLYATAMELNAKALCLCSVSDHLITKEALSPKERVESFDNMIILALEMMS
Description: The specific activity of PNP is usually determined using inosine as a substrate, in an assay in which the phosphorolysis product, hypoxanthine, is oxidized to uric acid in a reaction catalysed by xanthine oxidase. However, in the inhibition assay of PNP from H. pylori strain 26695, 7-methylguanosine (m^7Guo) and guanosine (Guo) were used as nucleoside substrates to avoid potential inhibition of xanthine oxidase by the test compounds. Phosphorolysis of these two substrates can be observed using a direct spectrophotometric method in a known manner.
Enzymatic activity was studied in a quartz cuvette with an optical path length of 1 cm or 0.5 cm. The absorbance of the reaction mixture, at the observation wavelength, never exceeded 1.2. The reaction volume was 1 ml or 1.4 ml in cuvettes with optical path lengths of 1 cm and 0.5 cm, respectively. The reaction mixture contained 50 mM Hepes/NaOH buffer, pH 7.0, 50 mM phosphate buffer, pH 7.0 (unless otherwise indicated), nucleoside substrate and inhibitor (with the latter not added to the reference/control reactions). Reactions were usually initiated by adding the enzyme to a cuvette containing the other reaction components. However, in cases where possible slow formation of an inhibitor-enzyme complex was checked, a second variant was also used involving incubation of the enzyme in a reaction mixture containing the inhibitor but lacking the substrate, 7-methylguanosine, and initiation of the reaction by adding this substrate.
In order to determine the inhibition constants and determine the molecular mechanism of inhibition, equations describing different mechanisms of inhibition were fitted to the obtained experimental data. GraphPad Prism 8 program was used. The model best describing the obtained data was selected based on the sum of squares of deviations using the F test for models with different number of parameters and the Akaike criterion (AIC) for models with the same number of parameters.
The following equations were used to describe competitive inhibition, characterized by the inhibition constant Kic, [1], uncompetitive, characterized by the inhibition constant Kiu, [2], non-competitive, characterized by the inhibition constant Kin, [3], and mixed, characterized by the inhibition constants Kiu and Kic, [4] (Segel, 1993):
The last equation can also be represented in the following form, as used by GraphPad Prism software, where Kiu=alpha Kic:
Immucillin A was chosen as the most promising one for potential pharmacological use in combating H. pylori infection because immucillin A has an amino substituent at position 6 of the 9-dazapurine ring, while PNP found in the human body requires a substituent at this position having electron-pairs-hydrogen bond acceptors, such as a substituent in the form of a keto group, to strongly bind the ligand. According to the invention, it is therefore believed that immucillin A will not interact with the host PNP, and thus allow selective inhibition of the PNP from H. pylori. Using the methods described above, the effect of immucillin A on the rate of the 7-methylguanosine (m^7Guo) phosphorolysis reaction catalysed by PNP from H. pylori was examined (FIG. 1). Since it is known (Schramm, 2018) that immucillins form a strongly bound complex with the enzyme relatively slowly, reactions were initiated by adding the substrate, m^7Guo, to a cuvette in which the enzyme was incubated with the inhibitor, as described in Example 1.
Data analysis was also performed as described in this Example. The range of substrate concentrations tested was 10-200 μM or 10-280 μM (shown in FIG. 4), and the range of inhibitor concentrations was chosen according to the observed degree of inhibition of the reaction, in order to obtain a significant degree of inhibition that allows determination of the inhibition mechanism and determination of inhibition constants (see FIG. 4). […]

[3] = 7-methylguanosine substrate, 25° C., pH 7.0, 50 mM phosphate, mixed type model, read-out: Kic
[4] = 7-methylguanosine substrate, 25° C., pH 7.0, 50 mM phosphate, mixed type model, read-out: Kiu
[5] = 7-methylguanosine substrate, 25° C., pH 7.0, 50 mM phosphate, non-competitive model, read-out: Kin
[6] = 7-methylguanosine substrate, mixed type model
[7] = 7-methylguanosine substrate, 25° C., pH 7.0, 50 mM phosphate, uncompetitive model, read-out: Kiu
[8] = Helicobacter pylori, inhibitor partially precipitated, actual dissolved concentration lower

Row | SMILES | % inhibition of H. pylori cell cultures at maximum inhibitor solubility [1] [%] | Ki [2, 3] [µM] | Ki [2, 4] [µM] | Ki [2, 5] [µM] | alpha = Kiu/Kic [2, 6] | further results
1 | Clc1nc(Cl)c2[nH]cnc2n1 [2,6-diCl-Pu, 2,6-dichloropurine] | 93 | – | – | – | – | MIC ([1]; Helicobacter pylori): 473 µg/mL and 2500 µM
2 | Clc1nc(Cl)c2[nH]cnc2n1 [2,6-dichloropurine] | – | 20 ± 4.9 | 23.5 ± 3.5 | 22.2 ± 1.4 | 1.17 ± 0.44 | –
3 | c1ccc(CSc2ncnc3nc[nH]c23)cc1 [6-benzylthiopurine] | – | 7.5 ± 1.3 | 8.1 ± 0.7 | 7.9 ± 0.4 | 1.07 ± 0.27 | –
4 | Clc1nc(OCc2ccccc2)c2[nH]cnc2n1 [6BnO-2Cl-Pu, 6-benzyloxy-2-chloropurine] | 35 | 18.3 ± 7.3 | 4.6 ± 0.5 | 6.5 ± 0.4 | 0.25 ± 0.12 | inhibition at 350 µM ([1]; Helicobacter pylori, 350 μM (91 μg/ml), inhibitor partially precipitated, read-out: % inhibition of H. pylori cell cultures): 75%; Ki [2, 7]: 3.8 ± 0.3 µM
5 | Clc1nc(SCc2ccccc2)c2[nH]cnc2n1 [6BnS-2Cl-Pu, 6-benzylthio-2-chloropurine] | 92 | 13.2 ± 10.7 | 2.1 ± 0.3 | – | 0.16 ± 0.15 | MIC [1, 8]: 69 µg/mL and 250 µM; Ki [2, 7]: 1.8 ± 0.2 µM
6 | OC[C@H]1O[C@@H](n2cnc3c(SCc4ccccc4)nc(Cl)nc32)C[C@@H]1O [6BnS-2Cl-Pu-9dr, 2-chloro-6-benzylthiopurine-2′-deoxy-9-ribofuranoside] | 5 | 6.2 ± 2.4 | 2.9 ± 0.5 | – | 0.47 ± 0.24 | growth inhibition [1]: complete growth inhibition; alpha = Kiu/Kic ([2]; guanosine as a substrate, mixed type model): 0.16 ± 0.08; Ki ([2]; guanosine as a substrate, mixed type model, read-out: Kic): 12.6 ± 5.7 µM; Ki ([2]; guanosine as a substrate, mixed type model, read-out: Kiu): 2 ± 0.2 µM
7 | c1ccc(CSc2ncnc3nc[nH]c23)cc1 [6BnS-Pu, 6-benzylthiopurine] | 83 | – | – | – | – | MIC [1, 8]: 48 µg/mL and 200 µM; growth inhibition [1]: Complete inhibition
8 | NC[C@H]1O[C@H](O[C@H]2[C@H](O)[C@@H](O[C@H]3O[C@H](CO)[C@@H](O)[C@H](N)[C@H]3O)[C@H](N)C[C@@H]2N)[C@H](O)[C@@H](O)[C@@H]1O [Kanamycin, kanamycin] | – | – | – | – | – | inhibition at 52 µM ([1]; Helicobacter pylori, kanamycin 25 μg/ml (52 μM), positive control, read-out: % inhibition of H. pylori cell cultures): 92 to 96%
9 | Nc1ncnc2c([C@@H]3N[C@H](CO)C(O)[C@@H]3O)c[nH]c12 (stereo partly shown) [immucillin A] | – | – | – | – | – | MIC ([1]; Helicobacter pylori): 80 µM (≈ 21.2 µg/mL); Ki [2]: 0.0013 ± 0.0002 µM
